Experiments:
Conditions in all cases: Compound concentration 1.0 uM
[1] = target: Dual specificity tyrosine-phosphorylation-regulated kinase 1A (Homo sapiens) (UniProt Q13627)
[2] = target: Receptor-type tyrosine-protein kinase FLT3 (Homo sapiens) (UniProt P36888)
[3] = target: Serine/threonine-protein kinase SIK3 (Homo sapiens) (UniProt Q9Y2K2)
[4] = target: T1, cGMP-dependent protein kinase 1 (Homo sapiens) (UniProt Q13976)
T1 sequence (whole entry): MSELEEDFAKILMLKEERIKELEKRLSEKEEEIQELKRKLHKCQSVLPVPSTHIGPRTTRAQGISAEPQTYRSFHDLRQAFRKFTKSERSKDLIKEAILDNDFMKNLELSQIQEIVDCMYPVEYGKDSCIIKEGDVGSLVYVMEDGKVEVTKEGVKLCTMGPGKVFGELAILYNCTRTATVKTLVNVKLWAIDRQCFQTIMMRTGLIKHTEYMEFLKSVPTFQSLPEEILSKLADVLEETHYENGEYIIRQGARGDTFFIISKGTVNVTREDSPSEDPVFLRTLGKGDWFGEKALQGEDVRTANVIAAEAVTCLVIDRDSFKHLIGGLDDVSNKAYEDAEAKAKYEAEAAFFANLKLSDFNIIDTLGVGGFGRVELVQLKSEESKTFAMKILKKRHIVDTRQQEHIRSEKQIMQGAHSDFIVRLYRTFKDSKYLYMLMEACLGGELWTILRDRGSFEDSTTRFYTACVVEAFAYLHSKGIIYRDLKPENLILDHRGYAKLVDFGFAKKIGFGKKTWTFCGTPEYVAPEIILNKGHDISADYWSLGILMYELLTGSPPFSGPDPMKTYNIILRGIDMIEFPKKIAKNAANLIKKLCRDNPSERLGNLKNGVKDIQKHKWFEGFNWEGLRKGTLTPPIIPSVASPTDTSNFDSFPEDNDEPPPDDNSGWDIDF

[5] = species on record: Homo sapiens
[6] = target: Tyrosine-protein kinase HCK (Homo sapiens) (UniProt P08631)
[7] = target: Serine/threonine-protein kinase MARK2 (Homo sapiens) (UniProt Q7KZI7)
[8] = target: Serine/threonine-protein kinase Nek6 (Homo sapiens) (UniProt Q9HC98)
[9] = target: [Pyruvate dehydrogenase (acetyl-transferring)] kinase isozyme 1, mitochondrial (Homo sapiens) (UniProt Q15118)
[10] = target: Serine/threonine-protein kinase WNK2 (Homo sapiens) (UniProt Q9Y3S1)
[11] = target: T2, Myosin light chain kinase (Homo sapiens) (UniProt Q32MK0)
T2 sequence (whole entry): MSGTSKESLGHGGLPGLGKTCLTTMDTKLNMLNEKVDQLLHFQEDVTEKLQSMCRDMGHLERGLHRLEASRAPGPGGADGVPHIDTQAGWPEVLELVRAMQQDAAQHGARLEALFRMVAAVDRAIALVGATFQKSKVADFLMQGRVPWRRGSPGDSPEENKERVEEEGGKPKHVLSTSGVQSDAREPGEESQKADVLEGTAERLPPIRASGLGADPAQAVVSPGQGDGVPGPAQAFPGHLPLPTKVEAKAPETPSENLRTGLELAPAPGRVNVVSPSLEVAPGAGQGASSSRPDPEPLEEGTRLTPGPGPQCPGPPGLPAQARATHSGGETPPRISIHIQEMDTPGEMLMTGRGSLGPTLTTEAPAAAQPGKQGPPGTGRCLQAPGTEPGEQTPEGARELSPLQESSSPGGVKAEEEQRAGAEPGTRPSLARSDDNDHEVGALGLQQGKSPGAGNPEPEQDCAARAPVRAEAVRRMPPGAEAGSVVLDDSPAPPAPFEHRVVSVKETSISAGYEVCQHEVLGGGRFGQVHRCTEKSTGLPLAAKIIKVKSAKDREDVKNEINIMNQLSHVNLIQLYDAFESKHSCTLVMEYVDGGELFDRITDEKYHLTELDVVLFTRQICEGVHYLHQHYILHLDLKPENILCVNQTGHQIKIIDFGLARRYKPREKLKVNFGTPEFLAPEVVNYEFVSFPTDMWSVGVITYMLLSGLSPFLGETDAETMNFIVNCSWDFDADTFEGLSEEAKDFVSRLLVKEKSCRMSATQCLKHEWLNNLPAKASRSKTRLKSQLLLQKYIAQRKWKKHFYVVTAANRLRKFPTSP

[12] = target: Tyrosine-protein kinase receptor UFO (Homo sapiens) (UniProt P30530)
[13] = target: T3, Serine/threonine-protein kinase 17A (Homo sapiens) (UniProt Q9UEE5)
T3 sequence (whole entry): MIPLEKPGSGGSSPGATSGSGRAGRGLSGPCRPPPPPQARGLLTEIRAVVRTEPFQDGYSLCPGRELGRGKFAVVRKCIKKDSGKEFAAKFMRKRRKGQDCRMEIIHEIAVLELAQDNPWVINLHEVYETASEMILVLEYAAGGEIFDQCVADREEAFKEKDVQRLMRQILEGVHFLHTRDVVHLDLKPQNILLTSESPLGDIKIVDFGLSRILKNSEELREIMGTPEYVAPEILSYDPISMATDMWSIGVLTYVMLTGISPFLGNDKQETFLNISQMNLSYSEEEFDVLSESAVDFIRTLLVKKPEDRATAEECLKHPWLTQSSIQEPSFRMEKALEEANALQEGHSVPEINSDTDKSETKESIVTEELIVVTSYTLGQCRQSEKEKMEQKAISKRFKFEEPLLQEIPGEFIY

[14] = target: Tyrosine-protein kinase ABL1 (Homo sapiens) (UniProt P00519)

Measured: % residual kinase activity

Chain of Receptor-type tyrosine-protein kinase FLT3 (Homo sapiens) (P36888 whole entry): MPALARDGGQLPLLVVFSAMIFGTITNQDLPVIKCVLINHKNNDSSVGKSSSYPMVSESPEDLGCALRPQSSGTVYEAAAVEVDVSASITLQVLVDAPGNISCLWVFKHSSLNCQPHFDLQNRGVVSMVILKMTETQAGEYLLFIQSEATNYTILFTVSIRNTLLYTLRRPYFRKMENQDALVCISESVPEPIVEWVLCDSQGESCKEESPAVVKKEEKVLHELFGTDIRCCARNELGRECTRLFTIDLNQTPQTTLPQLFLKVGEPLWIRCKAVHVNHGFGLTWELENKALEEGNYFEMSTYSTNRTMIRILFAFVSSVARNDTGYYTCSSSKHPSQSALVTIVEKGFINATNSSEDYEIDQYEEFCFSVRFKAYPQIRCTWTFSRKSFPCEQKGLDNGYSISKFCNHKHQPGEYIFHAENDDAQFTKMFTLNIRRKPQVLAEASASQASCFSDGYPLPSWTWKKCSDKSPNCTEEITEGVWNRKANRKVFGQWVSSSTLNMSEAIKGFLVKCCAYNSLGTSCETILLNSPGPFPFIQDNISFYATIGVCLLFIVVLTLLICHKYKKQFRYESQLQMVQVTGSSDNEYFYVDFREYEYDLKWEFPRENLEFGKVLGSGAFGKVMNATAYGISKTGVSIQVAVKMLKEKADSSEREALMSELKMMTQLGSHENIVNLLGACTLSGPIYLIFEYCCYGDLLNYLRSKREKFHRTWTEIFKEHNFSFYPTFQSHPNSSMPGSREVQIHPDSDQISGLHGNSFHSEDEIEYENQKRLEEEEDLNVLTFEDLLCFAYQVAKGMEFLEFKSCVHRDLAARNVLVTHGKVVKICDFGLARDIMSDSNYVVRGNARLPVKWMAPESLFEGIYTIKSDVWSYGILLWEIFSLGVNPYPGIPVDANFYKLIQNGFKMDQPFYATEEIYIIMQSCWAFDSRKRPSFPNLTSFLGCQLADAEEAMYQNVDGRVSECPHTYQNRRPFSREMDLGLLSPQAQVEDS
Chain of Serine/threonine-protein kinase WNK2 (Homo sapiens) (Q9Y3S1 whole entry): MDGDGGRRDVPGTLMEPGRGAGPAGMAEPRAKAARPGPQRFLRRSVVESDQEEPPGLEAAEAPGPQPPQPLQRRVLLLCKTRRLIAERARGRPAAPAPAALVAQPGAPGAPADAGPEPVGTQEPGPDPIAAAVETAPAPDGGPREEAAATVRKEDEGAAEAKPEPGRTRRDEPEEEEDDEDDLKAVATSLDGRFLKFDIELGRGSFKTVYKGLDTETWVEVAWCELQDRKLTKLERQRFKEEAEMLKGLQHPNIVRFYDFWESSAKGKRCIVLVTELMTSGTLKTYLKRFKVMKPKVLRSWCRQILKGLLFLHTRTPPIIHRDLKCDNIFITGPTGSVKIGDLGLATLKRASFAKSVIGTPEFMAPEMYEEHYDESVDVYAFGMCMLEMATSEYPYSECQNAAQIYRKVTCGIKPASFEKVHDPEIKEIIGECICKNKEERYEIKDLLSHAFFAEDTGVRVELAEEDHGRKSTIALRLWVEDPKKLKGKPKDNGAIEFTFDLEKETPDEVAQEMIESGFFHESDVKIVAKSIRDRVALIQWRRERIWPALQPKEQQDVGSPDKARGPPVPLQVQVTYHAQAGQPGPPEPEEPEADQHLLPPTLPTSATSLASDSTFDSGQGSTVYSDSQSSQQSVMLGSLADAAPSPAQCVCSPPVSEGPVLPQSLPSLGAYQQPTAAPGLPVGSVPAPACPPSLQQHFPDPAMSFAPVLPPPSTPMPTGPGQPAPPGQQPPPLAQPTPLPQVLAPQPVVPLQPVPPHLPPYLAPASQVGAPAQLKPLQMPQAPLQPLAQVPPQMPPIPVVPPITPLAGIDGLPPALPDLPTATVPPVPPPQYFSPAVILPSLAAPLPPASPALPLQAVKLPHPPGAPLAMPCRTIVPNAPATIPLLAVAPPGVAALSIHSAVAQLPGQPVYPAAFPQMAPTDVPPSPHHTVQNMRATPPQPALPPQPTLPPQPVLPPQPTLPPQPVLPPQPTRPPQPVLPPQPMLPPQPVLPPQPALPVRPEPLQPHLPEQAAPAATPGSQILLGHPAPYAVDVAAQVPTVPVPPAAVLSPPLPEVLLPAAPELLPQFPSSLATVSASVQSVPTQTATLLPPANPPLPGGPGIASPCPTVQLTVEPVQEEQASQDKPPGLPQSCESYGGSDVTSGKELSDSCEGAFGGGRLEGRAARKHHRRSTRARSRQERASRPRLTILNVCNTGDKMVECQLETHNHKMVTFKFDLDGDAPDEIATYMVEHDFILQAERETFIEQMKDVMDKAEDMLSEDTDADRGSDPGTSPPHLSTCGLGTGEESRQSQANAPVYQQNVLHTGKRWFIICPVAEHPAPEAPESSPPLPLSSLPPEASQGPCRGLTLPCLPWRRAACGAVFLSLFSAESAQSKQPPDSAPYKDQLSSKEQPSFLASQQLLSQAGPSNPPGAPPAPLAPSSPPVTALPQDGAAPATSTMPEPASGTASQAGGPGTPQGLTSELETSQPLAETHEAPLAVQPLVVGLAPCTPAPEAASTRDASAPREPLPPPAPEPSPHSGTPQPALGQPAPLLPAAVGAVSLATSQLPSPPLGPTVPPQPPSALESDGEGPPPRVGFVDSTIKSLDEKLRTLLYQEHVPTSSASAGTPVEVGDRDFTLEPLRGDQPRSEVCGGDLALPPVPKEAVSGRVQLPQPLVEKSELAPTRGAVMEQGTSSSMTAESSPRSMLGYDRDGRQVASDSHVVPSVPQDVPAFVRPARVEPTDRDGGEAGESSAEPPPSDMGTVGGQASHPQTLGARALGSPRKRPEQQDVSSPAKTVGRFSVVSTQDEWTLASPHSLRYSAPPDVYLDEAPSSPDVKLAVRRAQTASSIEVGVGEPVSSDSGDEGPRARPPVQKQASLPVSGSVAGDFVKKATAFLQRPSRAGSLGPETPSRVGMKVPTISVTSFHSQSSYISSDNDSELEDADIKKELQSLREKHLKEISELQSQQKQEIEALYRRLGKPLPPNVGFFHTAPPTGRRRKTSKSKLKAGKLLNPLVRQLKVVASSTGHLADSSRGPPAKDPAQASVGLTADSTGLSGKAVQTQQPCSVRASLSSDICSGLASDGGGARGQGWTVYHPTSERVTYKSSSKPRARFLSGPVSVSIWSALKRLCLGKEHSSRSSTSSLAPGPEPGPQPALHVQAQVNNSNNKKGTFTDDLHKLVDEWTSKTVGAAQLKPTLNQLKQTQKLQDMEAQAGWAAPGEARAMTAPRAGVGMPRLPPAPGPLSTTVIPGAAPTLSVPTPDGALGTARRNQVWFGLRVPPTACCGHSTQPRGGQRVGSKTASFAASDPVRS
Chain of Tyrosine-protein kinase receptor UFO (Homo sapiens) (P30530 whole entry): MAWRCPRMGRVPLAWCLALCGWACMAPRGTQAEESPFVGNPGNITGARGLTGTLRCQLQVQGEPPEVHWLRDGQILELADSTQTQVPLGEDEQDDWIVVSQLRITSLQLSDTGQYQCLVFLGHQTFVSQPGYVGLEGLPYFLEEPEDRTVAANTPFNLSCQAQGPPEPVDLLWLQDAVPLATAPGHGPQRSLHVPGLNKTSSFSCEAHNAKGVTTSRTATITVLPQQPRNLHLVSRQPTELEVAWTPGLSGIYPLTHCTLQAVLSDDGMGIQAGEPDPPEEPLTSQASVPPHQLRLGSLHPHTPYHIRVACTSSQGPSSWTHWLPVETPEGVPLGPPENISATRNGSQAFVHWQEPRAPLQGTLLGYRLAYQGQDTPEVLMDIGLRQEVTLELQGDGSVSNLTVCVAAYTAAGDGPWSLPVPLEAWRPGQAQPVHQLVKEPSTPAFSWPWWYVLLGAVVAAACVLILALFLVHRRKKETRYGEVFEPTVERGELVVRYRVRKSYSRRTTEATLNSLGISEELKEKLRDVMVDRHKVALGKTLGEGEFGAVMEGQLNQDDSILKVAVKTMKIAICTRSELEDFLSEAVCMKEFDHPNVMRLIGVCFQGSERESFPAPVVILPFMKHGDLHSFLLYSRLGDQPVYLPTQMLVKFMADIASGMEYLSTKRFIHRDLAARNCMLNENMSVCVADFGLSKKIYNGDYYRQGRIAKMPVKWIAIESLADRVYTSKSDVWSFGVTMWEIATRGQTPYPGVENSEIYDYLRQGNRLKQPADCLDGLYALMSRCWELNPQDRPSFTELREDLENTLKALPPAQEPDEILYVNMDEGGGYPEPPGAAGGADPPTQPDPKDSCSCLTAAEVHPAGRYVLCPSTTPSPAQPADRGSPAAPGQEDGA
Chain of Serine/threonine-protein kinase MARK2 (Homo sapiens) (Q7KZI7 whole entry): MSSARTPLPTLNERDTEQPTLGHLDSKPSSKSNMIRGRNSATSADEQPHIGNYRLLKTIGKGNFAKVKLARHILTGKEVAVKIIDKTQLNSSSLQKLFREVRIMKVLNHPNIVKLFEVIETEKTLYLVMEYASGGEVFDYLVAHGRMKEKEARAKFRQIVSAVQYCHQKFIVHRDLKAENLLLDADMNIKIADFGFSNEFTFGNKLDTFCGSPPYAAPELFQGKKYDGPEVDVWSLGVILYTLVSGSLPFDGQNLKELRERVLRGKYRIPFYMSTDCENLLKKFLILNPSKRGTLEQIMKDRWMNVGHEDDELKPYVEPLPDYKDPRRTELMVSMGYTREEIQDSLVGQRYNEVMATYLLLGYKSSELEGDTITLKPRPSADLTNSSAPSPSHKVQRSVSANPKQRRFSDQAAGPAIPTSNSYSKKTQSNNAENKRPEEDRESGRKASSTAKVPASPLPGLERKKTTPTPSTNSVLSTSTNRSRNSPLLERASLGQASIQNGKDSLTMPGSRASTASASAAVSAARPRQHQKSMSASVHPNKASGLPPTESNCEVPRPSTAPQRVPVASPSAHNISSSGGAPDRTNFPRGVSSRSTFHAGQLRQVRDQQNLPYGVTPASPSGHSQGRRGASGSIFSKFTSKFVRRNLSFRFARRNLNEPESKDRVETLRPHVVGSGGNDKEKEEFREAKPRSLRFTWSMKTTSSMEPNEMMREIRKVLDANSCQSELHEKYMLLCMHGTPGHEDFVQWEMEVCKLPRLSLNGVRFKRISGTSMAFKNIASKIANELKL

CN1CCN(c2cnc3c(C4CCN(C(=O)c5ccc(OC(F)(F)F)cc5N)CC4)ncnc3c2)CC1 [BAY-885]
inactive: [1] 112% | [2] 100% | [3] 96% | [4] 122% | [5] 112% | [6] 95% | [7] 113% | [8] 125% | [9] 89% | [10] 107% | [11] 107% | [12] 91% | [13] 85% | [14] 100%

— ChEMBL document CHEMBL4507268 (2021)
